Calls of active or inactive are those of the source. No cut-off for these calls is given here.

Assay [1] relates to HCT-116. As to the kind of experiment: Antiproliferative activity against human HCT116 cells expressing wild-type p53 after 72 hrs by MTT test. The format is functional, cell-based. The note with it: HCT-116, 72 h.
Assay [2] concerns K562. As to the kind of experiment: Antiproliferative activity against human K562 cells after 72 hrs by MTT test. The format is functional, cell-based. The note with it: K562, 72 h.
A short description of assay [3]: Antiproliferative activity against human p53 deficient HCT116 p53-/- cells after 72 hrs by MTT test. It counts as functional, cell-based. The conditions noted are these: HCT-116, 72 h.
The target of assay [4] is T1, DNA topoisomerase 1 (Homo sapiens) (UniProt P11387).
T1 sequence (whole entry): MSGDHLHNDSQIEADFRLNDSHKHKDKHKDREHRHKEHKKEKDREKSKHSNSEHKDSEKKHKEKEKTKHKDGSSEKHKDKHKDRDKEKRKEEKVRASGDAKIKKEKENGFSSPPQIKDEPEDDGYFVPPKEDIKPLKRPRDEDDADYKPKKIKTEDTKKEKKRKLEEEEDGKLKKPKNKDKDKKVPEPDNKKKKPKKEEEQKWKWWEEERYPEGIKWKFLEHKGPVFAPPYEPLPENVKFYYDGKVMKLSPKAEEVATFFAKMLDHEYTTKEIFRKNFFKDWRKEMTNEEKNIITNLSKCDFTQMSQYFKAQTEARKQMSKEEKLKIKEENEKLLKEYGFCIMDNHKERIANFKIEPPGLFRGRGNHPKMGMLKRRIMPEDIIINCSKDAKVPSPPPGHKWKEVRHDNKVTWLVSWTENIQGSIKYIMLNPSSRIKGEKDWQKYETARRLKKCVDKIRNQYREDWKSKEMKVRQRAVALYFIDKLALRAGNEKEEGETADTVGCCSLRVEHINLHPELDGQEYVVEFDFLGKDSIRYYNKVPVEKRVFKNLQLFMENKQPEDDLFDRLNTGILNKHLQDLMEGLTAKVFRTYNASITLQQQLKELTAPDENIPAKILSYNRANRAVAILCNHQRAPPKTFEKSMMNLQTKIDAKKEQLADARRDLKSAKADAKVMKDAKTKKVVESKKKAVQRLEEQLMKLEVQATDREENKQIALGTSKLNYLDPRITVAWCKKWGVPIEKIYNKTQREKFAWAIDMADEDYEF
As to the kind of experiment: Inhibition of topoisomerase 1 at >50 uM.

Assay [5] relates to HCT-116. Description: Resistance index, Ratio of IC50 for human p53 deficient HCT116 p53-/- cells to IC50 for human wild type HCT116 cells. The format is functional.
For assay [6], the system named is K562. Description: Resistance index, Ratio of IC50 for human drug-resistant K562i/S9 cells to IC50 for human K562 cells. The format is functional.
The nature of assay [7]: Antiproliferative activity against human multidrug-resistant K562i/S9 cells expressing Pgp after 72 hrs by MTT test. The format is functional, cell-based. The conditions noted are these: K562i/S9, 72 h.
For assay [8], the target named is T1, DNA topoisomerase 1 (Homo sapiens). As to the kind of experiment: Inhibition of topoisomerase 1 assessed as attenuation of DNA relaxation.
Assay [9] shares this target. As to the kind of experiment: Inhibition of topoisomerase 1 at 3 uM.

On to `CCOC(=O)C(N)Cc1c[nH]c2c(O)c3c(c(O)c12)C(=O)c1ccccc1C3=O` (stereo unspecified), for which the IC50 in the assay on HCT-116 [1] is 14.9 µM; with K562 [2] it was > 50 µM.

Take `COc1cccc2c1C(=O)c1c(O)c3c(c(O)c1C2=O)C[C@@](O)(C(=O)CO)C[C@@H]3O[C@H]1C[C@H](N)[C@H](O)[C@H](C)O1` [DOXORUBICIN]: the IC50 came to 4.4 µM in assay [3] and 1.4 µM in the assay with HCT-116 [1]. For the same compound, the outcome in assay [4] was Active.

In the case of `NC(Cc1c[nH]c2c(O)c3c(c(O)c12)C(=O)c1ccccc1C3=O)C(=O)O` (stereo unspecified), the IC50 in the assay on HCT-116 [1] and with K562 [2] was > 50 µM in each case.

For `CC(N)Cc1c[nH]c2c(O)c3c(c(O)c12)C(=O)c1ccccc1C3=O` (stereo unspecified), the 50% inhibitory concentration (IC50) in [3] turned out to be 5 µM; in assay [7] it was 13.4 µM; in the assay on HCT-116 [1], 4.8 µM; with K562 [2] it was 12 µM. Besides, the entries for the “Ratio IC50” value in the assay with HCT-116 [5] and in the assay with K562 [6] were 1 and 1.1, respectively.

In the case of `NCCc1c[nH]c2c(O)c3c(c(O)c12)C(=O)c1ccccc1C3=O`, the Activity result in [8] was “Dose-dependent effect”. The half-maximal inhibitory concentration (IC50) in [3] amounted to 1.2 µM; in [7], 2.2 µM; in the assay on HCT-116 [1], 1.1 µM; in the assay with K562 [2], 4 µM. For the same compound, the “Ratio IC50” value came out at 1.1 with HCT-116 [5] and 0.6 in the assay with K562 [6]. Moreover, the result in assay [9] was Active.

Source of the values: ChEMBL document CHEMBL1142919, “Naphthoindole-based analogues of tryptophan and tryptamine: synthesis and cytotoxic properties” (Bioorg Med Chem, 2007).
